Activity calls are given as the source filed them. How the calls were made is not given here.
System: CCRIS mutagenicity, Ames/micronucleus/aberration tests
Assay: CCRIS mutagenicity studies
[1] = Test System: AMES SALMONELLA TYPHIMURIUM, Strain/Indicator: TA97, Metabolic Activation: NONE, Method: PREINCUBATION
[2] = Test System: AMES SALMONELLA TYPHIMURIUM, Strain/Indicator: TA98, Metabolic Activation: NONE, Method: PREINCUBATION
[3] = Test System: AMES SALMONELLA TYPHIMURIUM, Strain/Indicator: TA100, Metabolic Activation: NONE, Method: PREINCUBATION
[4] = Test System: AMES SALMONELLA TYPHIMURIUM, Strain/Indicator: TA1535, Metabolic Activation: NONE, Method: PREINCUBATION

Measured: mutagenic call

CC(=O)Nc1cccc(C)c1
inactive: Test System: AMES SALMONELLA TYPHIMURIUM, Strain/Indicator: TA97, Metabolic Activation: HAMSTER, LIVER, S-9, AROCLOR 1254 (10 OR 30%), Method: PREINCUBATION inactive; negative | [1] inactive; negative | Test System: AMES SALMONELLA TYPHIMURIUM, Strain/Indicator: TA97, Metabolic Activation: RAT, LIVER, S-9, AROCLOR 1254 (10 OR 30%), Method: PREINCUBATION inactive; negative | Test System: AMES SALMONELLA TYPHIMURIUM, Strain/Indicator: TA98, Metabolic Activation: HAMSTER, LIVER, S-9, AROCLOR 1254 (10 OR 30%), Method: PREINCUBATION inactive; negative | [2] inactive; negative | Test System: AMES SALMONELLA TYPHIMURIUM, Strain/Indicator: TA98, Metabolic Activation: RAT, LIVER, S-9, AROCLOR 1254 (10 OR 30%), Method: PREINCUBATION inactive; negative | Test System: AMES SALMONELLA TYPHIMURIUM, Strain/Indicator: TA100, Metabolic Activation: HAMSTER, LIVER, S-9, AROCLOR 1254 (10 OR 30%), Method: PREINCUBATION inactive; negative | [3] inactive; negative | Test System: AMES SALMONELLA TYPHIMURIUM, Strain/Indicator: TA100, Metabolic Activation: RAT, LIVER, S-9, AROCLOR 1254 (10 OR 30%), Method: PREINCUBATION inactive; negative | Test System: AMES SALMONELLA TYPHIMURIUM, Strain/Indicator: TA1535, Metabolic Activation: HAMSTER, LIVER, S-9, AROCLOR 1254 (10 OR 30%), Method: PREINCUBATION inactive; negative | [4] inactive; negative | Test System: AMES SALMONELLA TYPHIMURIUM, Strain/Indicator: TA1535, Metabolic Activation: RAT, LIVER, S-9, AROCLOR 1254 (10 OR 30%), Method: PREINCUBATION inactive; negative

Oc1c(Cl)cccc1Cl
inactive: Test System: CHINESE HAMSTER V-79, Strain/Indicator: V-79/6-THIOGUANINE, Metabolic Activation: CELL-MEDIATED, Method: STANDARD PLATE inactive; negative | Test System: CHINESE HAMSTER V-79, Strain/Indicator: V-79/6-THIOGUANINE, Metabolic Activation: NONE, Method: STANDARD PLATE inactive; negative | Test System: CHINESE HAMSTER V-79, Strain/Indicator: V-79/6-THIOGUANINE, Metabolic Activation: PRIMARY RAT HEPATOCYTES, Method: STANDARD PLATE inactive; negative

OCc1ccccc1
inactive: End Point: IN VIVO MICRONUCLEUS, Test System: BONE MARROW POLYCHROMATIC ERYTHROCYTES, Species: MOUSE, Strain/Sex: DDY/MALE, Route: IP inactive; negative | [1] inactive; negative | Test System: AMES SALMONELLA TYPHIMURIUM, Strain/Indicator: TA97, Metabolic Activation: RAT, LIVER, S-9, AROCLOR 1254, Method: PREINCUBATION inactive; negative | Test System: AMES SALMONELLA TYPHIMURIUM, Strain/Indicator: TA98, Metabolic Activation: HAMSTER, LIVER, S-9, AROCLOR 1254, Method: PREINCUBATION inactive; negative | [2] inactive; negative | Test System: AMES SALMONELLA TYPHIMURIUM, Strain/Indicator: TA98, Metabolic Activation: RAT, LIVER, S-9, AROCLOR 1254, Method: PREINCUBATION inactive; negative | Test System: AMES SALMONELLA TYPHIMURIUM, Strain/Indicator: TA100, Metabolic Activation: HAMSTER, LIVER, S-9, AROCLOR 1254, Method: PREINCUBATION inactive; negative | [3] inactive; negative | Test System: AMES SALMONELLA TYPHIMURIUM, Strain/Indicator: TA100, Metabolic Activation: NONE, Method: STANDARD PLATE inactive; negative | Test System: AMES SALMONELLA TYPHIMURIUM, Strain/Indicator: TA100, Metabolic Activation: RAT, LIVER, S-9, AROCLOR 1254, Method: PREINCUBATION inactive; negative | Test System: AMES SALMONELLA TYPHIMURIUM, Strain/Indicator: TA102, Metabolic Activation: NONE, Method: PREINCUBATION inactive; negative | Test System: AMES SALMONELLA TYPHIMURIUM, Strain/Indicator: TA102, Metabolic Activation: RAT, LIVER, S-9, AROCLOR 1254, Method: PREINCUBATION inactive; negative | Test System: AMES SALMONELLA TYPHIMURIUM, Strain/Indicator: TA1535, Metabolic Activation: HAMSTER, LIVER, S-9, AROCLOR 1254, Method: PREINCUBATION inactive; negative | [4] inactive; negative | Test System: AMES SALMONELLA TYPHIMURIUM, Strain/Indicator: TA1535, Metabolic Activation: RAT, LIVER, S-9, AROCLOR 1254, Method: PREINCUBATION inactive; negative | Test System: AMES SALMONELLA TYPHIMURIUM, Strain/Indicator: TA1537, Metabolic Activation: HAMSTER, LIVER, S-9, AROCLOR 1254, Method: PREINCUBATION inactive; negative | Test System: AMES SALMONELLA TYPHIMURIUM, Strain/Indicator: TA1537, Metabolic Activation: NONE, Method: PREINCUBATION inactive; negative | Test System: AMES SALMONELLA TYPHIMURIUM, Strain/Indicator: TA1537, Metabolic Activation: RAT, LIVER, S-9, AROCLOR 1254, Method: PREINCUBATION inactive; negative | Test System: Ames Salmonella typhimurium, Strain/Indicator: TA98, Metabolic Activation: None, Method: Direct plate incorporation inactive; negative | Test System: Ames Salmonella typhimurium, Strain/Indicator: TA98, Metabolic Activation: Rat, liver, S-9, Aroclor 1254, Method: Direct plate incorporation inactive; negative | Test System: Ames Salmonella typhimurium, Strain/Indicator: TA100, Metabolic Activation: None, Method: Direct plate incorporation inactive; negative | Test System: Ames Salmonella typhimurium, Strain/Indicator: TA100, Metabolic Activation: Rat, liver, S-9, Aroclor 1254, Method: Direct plate incorporation inactive; negative | Test System: MOUSE LYMPHOMA, Strain/Indicator: L5178Y (TK+/TK-), Metabolic Activation: RAT, LIVER, S-9, AROCLOR 1254, Method: SUSPENSION/PLATE inactive; negative
